Measurements taken from US20210395310A1, “Cyclic Peptide” (The University of Tokyo, priority 2018, published 2021).
Positions of bridges follow the written chain, without caps; N, C: chain ends. Non-standard residues stand in square brackets, D forms with d. Residues, ends and D or L forms follow the SMILES beside them. PEG12 = NCCOCCOCCOCCOCCOCCOCCOCCOCCOCCOCCOCCOCCC(=O)O; βAla = NCCC(=O)O

Legend:
tcHGF = biological target: T1, tcHGF (Homo sapiens, UniProt P14210); assay: Tissue staining of frozen human lung cancer tissue; details: thirty six lung cancer tissue sections
T1 construct: subjected to extracellular processing (cleavage) by a specific protease and is to be converted into two-chain HGF; tissue US Biomax FLU401B; host or cells: frozen human lung cancer tissue sections
T1 sequence (P14210 32-494 limits assumed): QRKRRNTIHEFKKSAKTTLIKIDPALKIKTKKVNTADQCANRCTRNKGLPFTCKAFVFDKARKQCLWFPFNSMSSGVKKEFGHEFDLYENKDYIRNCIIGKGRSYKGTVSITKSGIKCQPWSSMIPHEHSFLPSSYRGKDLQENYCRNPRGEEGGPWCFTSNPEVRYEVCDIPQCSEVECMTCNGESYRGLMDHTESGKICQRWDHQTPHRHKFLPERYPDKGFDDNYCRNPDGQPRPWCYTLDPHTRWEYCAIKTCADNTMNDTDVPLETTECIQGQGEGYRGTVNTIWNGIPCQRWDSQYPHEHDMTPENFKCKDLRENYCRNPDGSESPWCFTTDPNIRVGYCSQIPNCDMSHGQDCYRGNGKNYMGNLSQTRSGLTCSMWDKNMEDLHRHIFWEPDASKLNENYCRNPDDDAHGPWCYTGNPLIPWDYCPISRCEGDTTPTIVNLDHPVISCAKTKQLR
T1 sequence (P14210 495-728 limits assumed): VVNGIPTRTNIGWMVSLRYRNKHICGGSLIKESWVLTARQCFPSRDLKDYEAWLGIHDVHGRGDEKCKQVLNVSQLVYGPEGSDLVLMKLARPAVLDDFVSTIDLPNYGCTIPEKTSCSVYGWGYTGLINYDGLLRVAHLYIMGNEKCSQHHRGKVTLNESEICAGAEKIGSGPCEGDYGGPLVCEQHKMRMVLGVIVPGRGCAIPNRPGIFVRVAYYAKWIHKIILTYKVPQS
Protocol: A frozen human lung cancer tissue array FLU401B was obtained from US Biomax. A tissue section was fixed in a 4% (w/v) paraformaldehyde PBS solution at room temperature for 30 minutes, treated for one hour with a 3% (w/v) bovine serum-derived albumin (BSA) PBS solution to prevent non-specific adsorption of a probe, and incubated overnight at 4° C. with HiP-8-PEG11-biotin, a primary antibody against human HGF (clone: t5A11, Umitsu M, Sakai K, Ogasawara S, Kaneko M, Asaki R, Tamura-Kawakami K, Kato Y, Matsumoto K, Takagi J. Probing conformational and functional states of human hepatocyte growth factor by a panel of monoclonal antibodies. Scientific Reports, 6: 33149, 2016), or phosphorylated MET (phospho Y1230/1234/Y1235, product of Abeam) diluted with Can Get Signal (registered trademark) antibody staining (product of Toyobo).
After washing three times with PBS, the probes were detected with streptavidin or goat anti-mouse IgG labeled with Alexa Fluor 488 and goat anti-rabbit IgG (product of Thermo Fisher Scientific) labeled with Alexa Fluor 594.
For semi-quantitative detection of antibody staining, stained region and mixed region in each tissue was quantitatively determined by ImageJ software (product of NIH). […]

[1] = system: phosphorylation of MET, Gab1, Akt, and Erk1/2; assay: Western blotting analysis of HGF-induced phosphorylation in EHMES-1 cells; type: cell-based; details: 2 nM HGF, HiP-8 10, 100, 1,000, 10,000 nM
Protocol: EHMES-1 cells were cultured on a 6-well plate until they were from 80 to 90% confluent. After starvation for 6 hours, the cells were stimulated for 10 minutes with 2 nM hHGF in a culture medium in the absence of a cyclic peptide or in the presence of 10, 100, 1,000, or 10,000 nM cyclic peptide. The resulting cells were washed with PBS and lysed with 200 μl of lysis buffer 17 (product of R&D Systems) containing 1× Complete protease inhibitor cocktail (product of Roche). The protein concentration was measured by BCA assay (product of Thermo Fisher Scientific), and the protein was provided for 10% polyacrylamide gel SDS-PAGE. The protein was transferred onto a PVDF (polyvinylidene difluoride) membrane (Bio-Rad) and detected using a Can Get Signal (registered trademark) solution 1 containing a primary antibody (diluted at 1:2000), that is, MET (CST, 25H2), phospho-MET (Tyr1234/1235) (CST, D26), Akt (CST, 11E7), phospho-Akt (Ser473) (CST, D9E), Erk1/2 (CST, 137F5), phospho-Erk1/2 (Thr202/Tyr204) (CST, D13.14.4E), Gab1 (CST) and phospho-Gab1 (Tyr627) (CST, C32H2), and Can Get Signal (registered trademark) solution 2 (product of Toyobo) containing a horseradish peroxidase-bound secondary antibody (product of Dako) (diluted at 1:5000). […]

B16-F10 melanoma = assay: Cell migration test; type: cell-based; details: transwell, 16 hours
Protocol: B16F10 cells (1×10^5 cells/insert) cultured in 200 μl of a RPMI1640 medium containing 0.5% FBS were seeded in the upper insert (transwell having a diameter of 8 mm, product of Corning) while 800 μl of a RPMI1640 medium with or without hHGF or HiP-8, or an anti-human HGF rabbit polyclonal antibody and supplemented with 0.5% FBS was added to the bottom chamber. The cells were cultured for 16 hours and fixed with 4% PFA solution in PBS. The cells attached to the bottom surface of the membrane were stained with 0.4% crystal violet solution in 20% methanol and the number of cells was counted.

PC-9 cells = assay: Gefitinib resistance test; type: cell-based, human; details: gefitinib, HGF 20 ng/mL, 72 hours
Protocol: The resistance to gefitinib, an anticancer agent, was tested by seeding human lung cancer cells, PC-9 cells, on a 24-well plate and cultured for 24 hours on a RPMI medium containing 10% fetal bovine serum. The number of living cells was counted after non-addition or addition of gefitinib ([…]), HGF (20 ng/mL), or HiP8-PEG11 (1-1000 nM) and culturing for 72 hours.

HGF [2] = biological target: T2, HGF (Homo sapiens, UniProt P14210); assay: Binding of cyclic peptides to immobilized HGF by SPR (Biacore T200); details: immobilized biotinylated HGF, single cycle kinetics
T2 construct: the full-length human HGF cDNA was cloned into pEHX1.1 plasmid; made in house; host or cells: Chinese hamster ovary (CHO) cells
Protocol: Binding of the cyclic peptides to immobilized HGF was measured using surface plasmon resonance (SPR) with Biacore T200 (product of GE Healthcare). Specifically, 2000 resonance units (RU) of biotinylated HGF was immobilized onto a CAP sensor chip by using a biotin capture kit (product of GE Healthcare).
Binding of the cyclic peptides was tested by injecting varying concentrations of the cyclic peptides into an HBS EP+buffer (10 mM HEPES (pH 7.4), 150 mM NaCl, 3 mM EDTA, and 0.05% (v/v) Surfactant P20) containing 0.1% DMSO at a flow rate of 30 μl/min. Binding of the cyclic peptides to HGF was analyzed by single cycle kinetics analysis.

HGF [3] = biological target: T2, HGF; assay: Change in conformational structure of HGF: trypsin digestion; details: HGF 2.5 μM ± HiP-8 10 μM, room temperature, 30 minutes
Protocol: System of HGF (2.5 μM) with or without HiP-8 were digested with trypsin at room temperature for 30 minutes. A trypsin:HGF molar ratio was set at 0:1, 0.004:1, 0.012:1, 0.037:1, 0.11:1, 0.33:1, and 1:1. The product obtained by digestion was analyzed on from 5 to 20% SDS-PAGE under reducing conditions and stained with Coomassie Blue.
Target sequence in this assay (P14210 32-489 isoform P14210-3): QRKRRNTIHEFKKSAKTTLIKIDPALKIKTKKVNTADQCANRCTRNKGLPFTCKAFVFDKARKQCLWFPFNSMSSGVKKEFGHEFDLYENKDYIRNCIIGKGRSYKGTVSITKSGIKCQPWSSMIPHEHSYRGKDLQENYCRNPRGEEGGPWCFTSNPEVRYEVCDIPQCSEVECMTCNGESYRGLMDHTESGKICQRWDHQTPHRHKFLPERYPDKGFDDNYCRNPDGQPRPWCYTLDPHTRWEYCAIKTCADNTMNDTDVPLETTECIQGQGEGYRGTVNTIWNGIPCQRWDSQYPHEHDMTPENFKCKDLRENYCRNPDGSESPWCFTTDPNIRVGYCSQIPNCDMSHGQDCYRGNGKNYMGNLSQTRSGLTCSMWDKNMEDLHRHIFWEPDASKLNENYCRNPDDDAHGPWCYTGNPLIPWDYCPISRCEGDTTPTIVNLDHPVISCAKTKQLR
Target sequence in this assay (P14210 495-728): as the sequence (P14210 495-728 limits assumed) above

HGF-MET interaction = biological target: T3, HGF-MET interaction (Homo sapiens, UniProt P14210); assay: Competition of HiP-8 against binding between HGF or HGF fragment and MET ECD by SPR; details: immobilized MET external domain, varying HiP-8 concentrations
T3 construct: the full-length human HGF cDNA was cloned into pEHX1.1 plasmid; made in house; host or cells: Chinese hamster ovary (CHO) cells (HGF)
T3 sequence (P14210 32-489 isoform P14210-3): as the sequence (P14210 32-489 isoform P14210-3) above
T3 sequence (P14210 495-728): as the sequence (P14210 495-728 limits assumed) above
Protocol: Competition of HiP-8 against the binding between HGF or HGF fragment and MET ECD was measured by surface plasmon resonance (SPR) with Biacore 3000 (product of GE Flealthcare). His-labeled MET-ECD was supported on the surface of a nitrilotriacetic acid (NTA)-coated chip at 1000 RU. HiP-8 was mixed in advance at gradually increasing concentrations with 5 nM HGF, 30 nM NK4, or 30 nM SP fragment, and the resulting mixture was tested in 10 mM TBS (pH 7.4), 300 mM NaCl, and 0.05% Tween 20 (v/v) at a flow rate of 30 μl/min.

HGF [4] = biological target: T2, HGF; assay: Binding of HGF to immobilized HiP8-PEG11 by SPR (Biacore 3000); details: immobilized HiP-8-PEG11, read-out: KD of HGF binding to immobilized peptide
Protocol: (§1) Binding of HGF and HGF fragments to immobilized HiP8-PEG11 was measured by surface plasmon resonance (SPR) with Biacore 3000 (product of Ge Flealthcare). Hip8-PEG11-biotin was supported on the surface of a streptavidin-coated chip at 10 RU (resonance unit). The test was performed by injecting HGF and HGF fragments with varying concentrations into 10 mM TBS (pH 7.4), 150 mM NaCl, and 0.05% Tween 20 (v/v) at a flow rate of 30 μl/min. Binding affinity was analyzed from a fitting model of steady-state affinity by multi-cycle kinetics analysis.
(§2) HGF was an active type HGF without substitution of the cleavage site of wild type HGF (KQLR/V) with the recognition sequence of Factor Xa (IEGR/V) and domain-deficiency and was a two-chain HGF capable of activating MET. tcHGF (Xa) was an HGF with substitution of the cleavage site of the HGF with the recognition sequence of Factor Xa (IEGR/V) and was cleaved into two chains by the Factor Xa treatment. It was also a two-chain HGF capable of activating MET. On the other hand, scHGF (Xa) was obtained by substituting the cleavage site of HGF with the recognition sequence of Factor Xa (IEGR/V).

scHGF(Xa) = biological target: T4, scHGF(Xa) (Homo sapiens, UniProt P14210, K491I/L493G/Q492E); assay: Binding of scHGF(Xa) to immobilized HiP8-PEG11 by SPR (Biacore 3000); details: immobilized HiP-8-PEG11
T4 construct: The full-length HGF protein and N-terminally truncated HGF protein; hexahistidine (with TEV site) (C, cleaved yes); made in house; host or cells: Expi293F cells
T4 sequence (P14210 32-723 isoform P14210-3 K486I/Q487E/L488G): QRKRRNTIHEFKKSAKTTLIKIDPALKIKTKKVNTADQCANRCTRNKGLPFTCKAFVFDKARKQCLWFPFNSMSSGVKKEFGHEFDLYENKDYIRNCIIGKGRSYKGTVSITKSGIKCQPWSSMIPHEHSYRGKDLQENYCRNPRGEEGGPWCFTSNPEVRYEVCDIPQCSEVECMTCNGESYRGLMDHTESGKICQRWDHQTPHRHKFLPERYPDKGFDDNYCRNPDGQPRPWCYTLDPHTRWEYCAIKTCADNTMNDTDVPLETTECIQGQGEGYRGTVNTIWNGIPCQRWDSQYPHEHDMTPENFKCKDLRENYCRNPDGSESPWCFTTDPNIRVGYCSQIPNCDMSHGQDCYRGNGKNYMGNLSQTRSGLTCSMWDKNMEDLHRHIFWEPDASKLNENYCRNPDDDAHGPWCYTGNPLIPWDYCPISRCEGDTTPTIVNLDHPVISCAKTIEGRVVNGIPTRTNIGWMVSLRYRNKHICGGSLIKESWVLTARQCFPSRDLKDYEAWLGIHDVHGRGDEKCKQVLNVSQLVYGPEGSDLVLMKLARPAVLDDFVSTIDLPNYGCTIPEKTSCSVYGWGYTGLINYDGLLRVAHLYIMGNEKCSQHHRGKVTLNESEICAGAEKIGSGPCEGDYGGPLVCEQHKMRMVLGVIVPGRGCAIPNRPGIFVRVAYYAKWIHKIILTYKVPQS
Protocol: as §1, §2

[5] = system: MET activation/tyrosine phosphorylation; assay: MET activation inhibition test in mice; type: in vivo; details: human HGF knocked-in SCID mice with PC-9 tumors, intravenous injection
From the text: PC-9 human non-small cell lung cancer cells, which were to express human HGF, were transplanted subcutaneously to human HGF knocked-in SCID mice at 3×10^6 cells/site. On day 28 after transplantation, HiP8-PEG11 in PBS/phosphate buffered physiological saline solution was intravenously injected. The tumor tissue was removed, and MET activated/tyrosine-phosphorylated and a total MET amount in the tumor tissue were quantitatively determined by western blotting with the tissue extract. It is to be noted that the tumor tissue was homogenized in a RIPA buffer solution. Each sample containing […] of the protein was provided for SDS-PAGE and western blotting. Tyrosine-phosphorylated MET and a total MET amount were detected by western blotting.

| Structure (SMILES) | correlation of staining intensity of tcHGF detected by peptide with pMET (tcHGF) | phosphorylation of MET, Gab1, Akt, and Erk1/2 induced by HGF [1] | B16-F10 melanoma migration induced by HGF (B16-F10 melanoma) | effect on gefitinib resistance induced by HGF (PC-9 cells) | kon (HGF [2]; read-out: Ka (association rate)) | koff (HGF [2]; read-out: Kd (dissociation rate)) | structural change of HGF (trypsin proteolysis of SP chain) (HGF [3]) | mode of inhibition of HGF-MET interaction (HGF-MET interaction) | Kd (HGF [4]) | binding of scHGF(Xa) to immobilized peptide (scHGF(Xa)) | MET activation/tyrosine phosphorylation in tumor tissue [5] |
| --- | --- | --- | --- | --- | --- | --- | --- | --- | --- | --- | --- |
| CC(C)C[C@@H]1NC(=O)[C@@H]2CCCN2C(=O)[C@@H](Cc2c[nH]c3ccccc23)NC(=O)CSC[C@@H](C(=O)NCC(N)=O)NC(=O)[C@H](CCCNC(=N)N)NC(=O)[C@H](CCCCN)NC(=O)[C@H](CO)NC(=O)[C@H](Cc2ccc(O)cc2)NC(=O)[C@H](Cc2c[nH]c3ccccc23)NC(=O)[C@H](Cc2c[nH]c3ccccc23)NC(=O)[C@H](CCCCN)NC(=O)[C@H](CO)NC1=O [HiP-8, PLSKWWYSKR] | strong correlation with the staining intensity of pMET | inhibited phosphorylation of MET, Gab1, Akt, and Erk1/2 | inhibited B16-F10 melanoma migration induced by HGF at a level equivalent to that of an anti-HGF antibody | inhibited gefitinib resistance induced by HGF | 1.1e+06 M⁻¹ s⁻¹ | 0.0004 s⁻¹ | induced a change in the conformation of HGF | uncompetitive inhibition of HGF-MET interaction |  |  |  |
| CC(C)C[C@@H]1NC(=O)[C@@H]2CCCN2C(=O)[C@H](Cc2c[nH]c3ccccc23)NC(=O)CSC[C@@H](C(=O)NCCC(=O)NCCOCCOCCOCCOCCOCCOCCOCCOCCOCCOCCOCCOCCC(N)=O)NC(=O)[C@H](CCCNC(=N)N)NC(=O)[C@H](CCCCN)NC(=O)[C@H](CO)NC(=O)[C@H](Cc2ccc(O)cc2)NC(=O)[C@H](Cc2c[nH]c3ccccc23)NC(=O)[C@H](Cc2c[nH]c3ccccc23)NC(=O)[C@H](CCCCN)NC(=O)[C@H](CO)NC1=O [HiP-8-PEG11] ({CH2CO}-WPLSKWWYSKRC[βAla][PEG12]-NH2; thioether N-12) |  |  |  |  |  |  |  |  | 0.9 nM | very limited portion of the scHGF(Xa) bound | dose-dependent inhibition of MET activation/tyrosine phosphorylation |
